Test results from patent US10618885B2, “Compounds that activate autophagy” (Macau University of Science and Technology, priority 2018, dated 2020).
Read-outs that look alike come from different tables or passages of the source.

Legend:
Assay type in all cases: cell-based
[1] = system: LC3 conversion (LC3-I to LC3-II) in HeLa cells; experiment: Western blot for autophagic marker LC3 conversion in HeLa cells; details: 24 hours, three concentrations, normalised to β-actin
Protocol: After drug treatment, adherent and floating cells were lysed with RIPA lysis buffer. Protein concentrations were determined using the Bio-Rad protein assay (Bio-Rad Laboratories, Inc., Hercules, Calif., USA). The cell lysates of samples were subjected to electrophoresis on SDS polyacrylamide gels and transferred to Hybond enhanced chemiluminescence nitrocellulose membranes (Amersham Biosciences, Piscataway, N.J.), which were then blocked with 5% non-fat dry milk protein for 1 hour. Membranes were then incubated with the indicated primary antibodies overnight at 4° C. The binding of the antibody was visualized by peroxidase-coupled secondary antibody using the ECL (enhanced chemiluminescence) Western Blotting Detection Reagents (Invitrogen, Paisley, Scotland, UK). Band intensities were quantified by using the software ImageJ (NIH, Bethesda, Md., USA).
The presence of the autophagy marker protein, LC3-II was determined in HeLa cells by western blot analysis. HeLa cancer cells were treated with dauricine (Dau) or compounds 2a-4b with three indicated concentrations for 24 hours. Cell lysates were analyzed by Western blot for LC3 conversion ([…]) and β-actin. The western blot was shown in FIGS. 4A, 4C, 4E, 4G, 4I, 4K, and 4M. LC3-II band intensities were quantified using densitometric analysis and normalised to β-actin. The results were shown in FIGS. 4B, 4D, 4F, 4H, 4J, 4L and 4N. Data are expressed as a fold change relative to the DMSO-treated negative control. Bars are representatives of three independent experiments. Error bars, SEM. *, P<0.05; **, P<0.01; ***, P<0.001.

HeLa cancer cells = experiment: MTT cytotoxicity assay in HeLa cancer cells
Protocol: All test compounds were dissolved in DMSO (Dimethyl sulfoxide) at final concentrations of 50 mmol/L and stored at −20° C. before use. Cytotoxicity was assessed using the 3-(4, 5-dimethylthiazol-2-yl)-2, 5-diphenyltetrazolium bromide (MTT) (5.0 mg/ml) assay. Briefly, 4×10^3 cells were seeded per well in 96-well plates before drug treatment. After overnight culture, the cells were then exposed to different concentrations of test compounds (0.039-100 μmol/L) for 72 hours. Cells without drug treatment were used as control. Subsequently, MTT (10 μL) was added to each well and incubated at 37° C. for 4 hours followed by the addition of 100 μL solubilization buffer (10% SDS (Sodium dodecyl sulfate) in 0.01 mol/L HCl) and overnight incubation. A570 nm was determined from each well on the next day. The percentage of cell viability was calculated using the following formula: Cell viability (%)=Atreated/Acontrol×100. Data were obtained from triplication independent experiments.
FIG. 1 is a graph 100 showing cell viability of HeLa cells treated with dauricine, N-desmethyldauricine, and compounds 2a-4b. HeLa cancer cells in 96 well-plates were treated with 0 to 20 μM of dauricine (Dau), N-desmethyldauricine (NDau) and dauricine derivatives (2a-4b) for 72 hours. Cell cytotoxicity was then assessed using the 3-(4, 5-dimethylthiazol-2-yl)-2, 5-diphenyltetrazolium bromide (MTT) (5.0 mg/ml) assay. The IC50 values shown in FIG. 1 are mean values of three independent experiments.

HeLa cells = experiment: Annexin V cell death analysis by flow cytometry, with or without wortmannin; details: 24 hours; for compound-mediated cell death on blocking of autophagy by wortmannin: 5 μM compound plus 1 μM wortmannin; for percentage of cell death: 5 μM compound, annexin V staining, without wortmannin
Protocol: Apoptosis was detected by Annexin V staining kit (BD Biosciences, San Jose, Calif., USA). In brief, cells were exposed to the indicated concentrations of […] for 24 hours. Cells were then harvested and analyzed by flow cytometry using FITC-Annexin V and Propidium Iodide staining according to the manufacturer's instructions. Apoptotic cells were quantitatively counted by a flow cytometer (BD FACSAria III, San Jose, Calif., USA). Data acquisition and analysis were performed with CellQuest (BD Biosciences, San Jose, Calif., USA) from triple independent experiments.
To investigate whether the autophagy induced by compounds 2a, 2b, 3a, and 4a contributes to cell death, Annexin V cell death analysis was conducted. HeLa cells treated with these compounds (5 μM) in the presence or absence of 1 μM of wortmannin for 24 hours were assayed by flow cytometry after annexin V staining. Bar charts of FIGS. 5C and 5E represent the quantitation of cell death (%).

[2] = system: GFP-LC3 stable HeLa cells; experiment: Autophagy LC3 puncta detection in GFP-LC3 stable HeLa cells; details: 24 hours; for formation of GFP-LC3 puncta (fluorescence images): compared with untreated cells; for percentage of cells with GFP-LC3 puncta (dose dependence): three concentrations
Protocol: The detection of LC3 autophagic puncta was conducted using GFP-LC3 stable HeLa cancer cells as described below. In brief, compounds-treated GFP-LC3-HeLa cells on cover slips were fixed with 4% paraformaldehyde (Sigma) for 20 min at room temperature and then rinsed with PBS (phosphate-buffered saline). The coverslips were then mounted with FLUORSAVE™ mounting media (Calbiochem, San Diego, Calif., USA) for fluorescence imaging and the localization of LC3 autophagosomes were captured under the API Delta Vision Live-cell Imaging System (Applied Precision Inc., GE Healthcare Company, Washington, USA). To quantify autophagy, guidelines were followed to monitor autophagy, the percentage of cells with punctuate LC3 immunofluorescence staining was calculated by counting the number of the cells showing the increased punctuate pattern of LC3 fluorescence (≥10 dots/cell) in immunofluorescence-positive cells over the total number of cells in the same field. A minimum of 1000 cells from randomly selected fields were scored.
FIG. 2A-3H show identification of compounds 2a-4b with autophagic activities. GFP-LC3 puncta in compound-treated GFP-LC3-HeLa cells were detected. GFP-LC3 stable HeLa cells were treated with DMSO (−ve Ctrl) or the indicated concentrations of dauricine (Dau), N-desmethyldauricine (NDau) and dauricine derivatives (2a-4b) for 24 hours. Representative fluorescence images from the highest tested concentration of compound captured at 60× magnification were shown; scale bar, 15 μm. Bar charts represent the quantitation of autophagic cells. The percentages of autophagic cells were calculated as the number of cells with GFP-LC3 puncta (≥10 puncta/cell) divided by the total number of GFP-positive cells in the same field.

[3] = HeLa cancer cells, 72 hours, MTT, mean of three independent experiments, read-out: IC50 (cytotoxicity)

## COc1cc2c(cc1OC)C(Cc1ccc(Oc3cc(CC4c5cc(OC)c(OC)cc5CCN4C)ccc3OC(=O)N(c3ccccc3)c3ccccc3)cc1)N(C)CC2 (centres unmarked) [Compound 2a]
[1]
  conversion of LC3-I to LC3-II (fold change relative to DMSO control): increased the conversion of LC3-I to LC3-II in a dose dependent manner
HeLa cancer cells; [3]
  IC50: 5.44 µM
HeLa cells
  compound-mediated cell death on blocking of autophagy by wortmannin: significantly inhibited
  percentage of cell death: markedly increased the percentage of cell death

## COc1cc2c(cc1OC)C(Cc1ccc(Oc3cc(CC4c5cc(OC)c(OC)cc5CCN4C)ccc3OC(=O)N(C)c3ccccc3)cc1)N(C)CC2 (centres unmarked) [Compound 2b]
[1]
  conversion of LC3-I to LC3-II (fold change relative to DMSO control): increased the conversion of LC3-I to LC3-II in a dose dependent manner
HeLa cancer cells; [3]
  IC50: 6.72 µM
HeLa cells
  compound-mediated cell death on blocking of autophagy by wortmannin: significantly inhibited
  percentage of cell death: markedly increased the percentage of cell death

## COc1cc2c(cc1OC)C(Cc1ccc(Oc3cc(CC4c5cc(OC)c(OC)cc5CCN4C)ccc3OC(=O)N(C)C)cc1)N(C)CC2 (centres unmarked) [Compound 2c]
[1]
  conversion of LC3-I to LC3-II (fold change relative to DMSO control): increased the conversion of LC3-I to LC3-II in a dose dependent manner

## CCN(C)C(=O)Oc1ccc(CC2c3cc(OC)c(OC)cc3CCN2C)cc1Oc1ccc(CC2c3cc(OC)c(OC)cc3CCN2C)cc1 (centres unmarked) [Compound 2d]
[1]
  conversion of LC3-I to LC3-II (fold change relative to DMSO control): increased the conversion of LC3-I to LC3-II in a dose dependent manner

## CCN(CC)C(=O)Oc1ccc(CC2c3cc(OC)c(OC)cc3CCN2C)cc1Oc1ccc(CC2c3cc(OC)c(OC)cc3CCN2C)cc1 (centres unmarked) [Compound 2e]
[1]
  conversion of LC3-I to LC3-II (fold change relative to DMSO control): increased the conversion of LC3-I to LC3-II in a dose dependent manner

## COc1cc2c(cc1OC)C(Cc1ccc(Oc3cc(CC4c5cc(OC)c(OC)cc5CCN4C)ccc3OC(=O)N(C)OC)cc1)N(C)CC2 (centres unmarked) [Compound 2f]
[1]
  conversion of LC3-I to LC3-II (fold change relative to DMSO control): increased the conversion of LC3-I to LC3-II in a dose dependent manner

## COc1cc2c(cc1OC)C(Cc1ccc(Oc3cc(CC4c5cc(OC)c(OC)cc5CCN4C)ccc3OC(=O)N3CCOCC3)cc1)N(C)CC2 (centres unmarked) [Compound 2g]
[1]
  conversion of LC3-I to LC3-II (fold change relative to DMSO control): increased the conversion of LC3-I to LC3-II in a dose dependent manner

## COc1cc2c(cc1OC)C(Cc1ccc(Oc3cc(CC4c5cc(OC)c(OC)cc5CCN4C)ccc3OC(=O)c3ccccc3)cc1)N(C)CC2 (centres unmarked) [Compound 3a]
[1]
  conversion of LC3-I to LC3-II (fold change relative to DMSO control): increased the conversion of LC3-I to LC3-II in a dose dependent manner
HeLa cancer cells; [3]
  IC50: 6.44 µM
HeLa cells
  compound-mediated cell death on blocking of autophagy by wortmannin: significantly inhibited
  percentage of cell death: markedly increased the percentage of cell death

## COc1cc2c(cc1OC)C(Cc1ccc(Oc3cc(CC4c5cc(OC)c(OC)cc5CCN4C)ccc3OC(=O)c3ccco3)cc1)N(C)CC2 (centres unmarked) [Compound 3b]
[1]
  conversion of LC3-I to LC3-II (fold change relative to DMSO control): increased the conversion of LC3-I to LC3-II in a dose dependent manner

## COc1cc2c(cc1OC)C(Cc1ccc(Oc3cc(CC4c5cc(OC)c(OC)cc5CCN4C)ccc3OS(=O)(=O)c3ccc(C)cc3)cc1)N(C)CC2 (centres unmarked) [Compound 4a]
[1]
  conversion of LC3-I to LC3-II (fold change relative to DMSO control): increased the conversion of LC3-I to LC3-II in a dose dependent manner
HeLa cancer cells; [3]
  IC50: 6.1 µM
HeLa cells
  compound-mediated cell death on blocking of autophagy by wortmannin: significantly inhibited
  percentage of cell death: markedly increased the percentage of cell death

## COc1cc2c(cc1OC)C(Cc1ccc(Oc3cc(CC4c5cc(OC)c(OC)cc5CCN4C)ccc3OS(C)(=O)=O)cc1)N(C)CC2 (centres unmarked) [Compound 4b]
[1]
  conversion of LC3-I to LC3-II (fold change relative to DMSO control): increased the conversion of LC3-I to LC3-II in a dose dependent manner

## COc1cc2c(cc1OC)[C@@H](Cc1ccc(Oc3cc(C[C@H]4NCCc5cc(OC)c(OC)cc54)ccc3O)cc1)N(C)CC2 [N-desmethyldauricine, reference compound]
[1]
  conversion of LC3-I to LC3-II (fold change relative to DMSO control): increased the conversion of LC3-I to LC3-II in a dose-dependent manner
HeLa cancer cells
  IC50: 15.8 µM
[2]
  formation of GFP-LC3 puncta (fluorescence images): increased formation of GFP-LC3 puncta
  percentage of cells with GFP-LC3 puncta (dose dependence): induced autophagic puncta in HeLa cells in a dose-dependent manner

## COc1cc2c(cc1OC)[C@@H](Cc1ccc(Oc3cc(C[C@@H]4c5cc(OC)c(OC)cc5CCN4C)ccc3O)cc1)N(C)CC2 [dauricine, reference compound]
[1]
  conversion of LC3-I to LC3-II (fold change relative to DMSO control): increased the conversion of LC3-I to LC3-II in a dose-dependent manner
HeLa cancer cells; Homo sapiens, HeLa, 72 h, read-out: IC50 (cytotoxicity)
  IC50: 15.5 µM
[2]
  formation of GFP-LC3 puncta (fluorescence images): increased formation of GFP-LC3 puncta
  percentage of cells with GFP-LC3 puncta (dose dependence): induced autophagic puncta in HeLa cells in a dose-dependent manner

## COC[C@H]1OC(=O)c2coc3c2[C@@]1(C)C1=C(C3=O)[C@@H]2CCC(=O)[C@@]2(C)C[C@H]1OC(C)=O [wortmannin, reference compound]
HeLa cells; wortmannin alone (1 μM)
  cytotoxic effect of wortmannin alone: no cytotoxic effect
